Results on one compound are retold here after publication PMC4200806, “A Combined Experimental and Computational Study of Vam3, a Derivative of Resveratrol, and Syk Interaction” (International Journal of Molecular Sciences, 2014).

This assay has as its target Spleen tyrosine kinase (Syk) (Homo sapiens, UniProt P43405). The assay is described as follows: in vitro kinase assay with purified recombinant Syk (ADP-Glo, poly(Glu,Tyr) substrate); Ki from ATP-competition kinetics; IC50 […]. It counts as biochemical. For orientation: In ADP-Glo the light output rises with the ADP produced.

The Ki is a measure of affinity in units of concentration, obtained from inhibition or displacement. Turning to `Oc1ccc(/C=C/c2cc(O)cc3oc(-c4ccc(O)cc4)c(-c4cc(O)cc(O)c4)c23)cc1` [Vam3], the Ki came out at 0.0611 µM.
